Data as given in ChEMBL document CHEMBL4411307, “N,N'-diaryl-bishydrazones in a biphenyl platform: Broad spectrum antifungal agents” (Eur J Med Chem, 2019).
≈ marks a conversion by molar mass, not a printed value. Calls of active or inactive are those of the source. The rule behind the calls is not given here.

Assays:
[1] = Hemolytic activity in mouse RBC at 31.3 ug/ml after 1 hr relative to control; type: ADME, cell-based, Erythrocyte; settings: red blood cells (erythrocytes), read-out: Activity
Staphylococcus aureus = assay: Antibacterial activity against methicillin-resistant Staphylococcus aureus; type: functional, organism-based
[2] = Selectivity index, ratio of CC50 for human A549 cells to MIC for fluconazole/ITC-resistant Candida albicans ATCC MYA-1237; type: toxicity; settings: read-out: Selectivity Index
Aspergillus terreus = assay: Antifungal activity against Aspergillus terreus ATCC MYA-3633 measured after 48 hrs by CLSI M38-A2 protocol based method; type: functional; settings: ATCC MYA-3633, 48 h
A549 = assay: Cytotoxicity against human A549 cells after 24 hrs by resazurin based assay; type: cell-based; settings: a549, 24 h
[3] = Selectivity index, ratio of compound concentration showing <20 to <25% hemolysis in mouse RBC to MIC for fluconazole/ITC-susceptible Candida albicans ATCC MYA-2310; type: toxicity; settings: red blood cells (erythrocytes), read-out: Selectivity Index
[4] = Hemolytic activity in mouse RBC at 1.95 ug/ml after 1 hr relative to control; type: ADME, cell-based, Erythrocyte; settings: red blood cells (erythrocytes), read-out: Activity
[5] = Hemolytic activity in mouse RBC at 3.9 ug/ml after 1 hr relative to control; type: ADME, cell-based, Erythrocyte; settings: red blood cells (erythrocytes), read-out: Activity
[6] = Selectivity index, ratio of CC50 for human A549 cells to MIC for Candida krusei ATCC 6258; type: toxicity; settings: read-out: Selectivity Index
[7] = Selectivity index, ratio of CC50 for human A549 cells to MIC for fluconazole/ITC-resistant Candida albicans ATCC MYA-1003; type: toxicity; settings: read-out: Selectivity Index
[8] = Selectivity index, ratio of compound concentration showing <20 to <25% hemolysis in mouse RBC to MIC for Candida glabrata ATCC 2001; type: toxicity; settings: red blood cells (erythrocytes), read-out: Selectivity Index
[9] = Selectivity index, ratio of CC50 for human A549 cells to MIC for fluconazole/ITC-resistant Candida albicans ATCC 90819; type: toxicity; settings: read-out: Selectivity Index
[10] = Selectivity index, ratio of compound concentration showing <20 to <25% hemolysis in mouse RBC to MIC for fluconazole/ITC-resistant Candida albicans ATCC 10231; type: toxicity; settings: red blood cells (erythrocytes), read-out: Selectivity Index
Aspergillus flavus = assay: Antifungal activity against Aspergillus flavus ATCC MYA-3631 measured after 48 hrs by CLSI M38-A2 protocol based method; type: functional; settings: ATCC MYA-3631, 48 h
[11] = Selectivity index, ratio of compound concentration showing <20 to <25% hemolysis in mouse RBC to MIC for fluconazole/ITC-resistant Candida albicans ATCC 64124; type: toxicity; settings: red blood cells (erythrocytes), read-out: Selectivity Index
Candida albicans [12] = assay: Antifungal activity against fluconazole/ITC-susceptible Candida albicans ATCC MYA-2310 measured after 48 hrs by CLSI M27-A3 protocol based method; type: functional; settings: ATCC MYA-2310, 48 h
[13] = Selectivity index, ratio of compound concentration showing <20 to <25% hemolysis in mouse RBC to MIC for Candida parapsilosis ATCC 22019; type: toxicity; settings: red blood cells (erythrocytes), read-out: Selectivity Index
[14] = Hemolytic activity in mouse RBC at 62.5 ug/ml after 1 hr relative to control; type: ADME, cell-based, Erythrocyte; settings: red blood cells (erythrocytes), read-out: Activity
[15] = Selectivity index, ratio of CC50 for human A549 cells to MIC for Aspergillus terreus ATCC MYA-3633; type: toxicity; settings: read-out: Selectivity Index
[16] = Selectivity index, ratio of CC50 for human A549 cells to MIC for fluconazole/ITC-susceptible Candida albicans ATCC MYA-2876; type: toxicity; settings: read-out: Selectivity Index
Nakaseomyces glabratus = assay: Antifungal activity against Candida glabrata ATCC 2001 measured after 48 hrs by CLSI M27-A3 protocol based method; type: functional; settings: CBS 138, 48 h
[17] = Hemolytic activity in mouse RBC at […] ug/ml after 1 hr relative to control; type: ADME, cell-based, Erythrocyte; settings: red blood cells (erythrocytes), read-out: Activity
[18] = Selectivity index, ratio of CC50 for human A549 cells to MIC for Aspergillus flavus ATCC MYA-3631; type: toxicity; settings: read-out: Selectivity Index
Candida albicans [19] = assay: Antifungal activity against fluconazole/ITC-resistant Candida albicans ATCC 10231 measured after 48 hrs by CLSI M27-A3 protocol based method; type: functional; settings: ATCC 10231, 48 h
BEAS-2B = assay: Cytotoxicity against human BEAS2B cells after 24 hrs by resazurin based assay; type: cell-based
Candida albicans [20] = assay: Antifungal activity against fluconazole/ITC-resistant Candida albicans ATCC MYA-1237 measured after 48 hrs by CLSI M27-A3 protocol based method; type: functional; settings: ATCC MYA-1237, 48 h
Candida albicans [21] = assay: Antifungal activity against fluconazole/ITC-resistant Candida albicans ATCC 90819 measured after 48 hrs by CLSI M27-A3 protocol based method; type: functional; settings: ATCC 90819, 48 h
Pichia kudriavzevii = assay: Antifungal activity against Candida krusei ATCC 6258 measured after 48 hrs by CLSI M27-A3 protocol based method; type: functional; settings: ATCC 6258, 48 h
Candida albicans [22] = assay: Antifungal activity against fluconazole/ITC-resistant Candida albicans ATCC MYA-1003 measured after 48 hrs by CLSI M27-A3 protocol based method; type: functional; settings: ATCC MYA-1003, 48 h
[23] = Selectivity index, ratio of CC50 for human A549 cells to MIC for fluconazole/ITC-susceptible Candida albicans ATCC MYA-2310; type: toxicity; settings: read-out: Selectivity Index
Aspergillus nidulans = assay: Antifungal activity against Aspergillus nidulans ATCC 38163 measured after 48 hrs by CLSI M38-A2 protocol based method; type: functional; settings: ATCC 38163, 48 h
Candida parapsilosis = assay: Antifungal activity against Candida parapsilosis ATCC 22019 measured after 48 hrs by CLSI M27-A3 protocol based method; type: functional; settings: Lodderomyces parapsilosis, ATCC 22019, 48 h
[24] = Hemolytic activity in mouse RBC at […] after 1 hr relative to control; type: ADME, cell-based, Erythrocyte; settings: red blood cells (erythrocytes), read-out: Activity; also: tested at 0.48 µg/mL
[25] = Selectivity index, ratio of CC50 for human A549 cells to MIC for fluconazole/ITC-resistant Candida albicans ATCC 10231; type: toxicity; settings: read-out: Selectivity Index
[26] = Selectivity index, ratio of compound concentration showing <20 to <25% hemolysis in mouse RBC to MIC for fluconazole/ITC-resistant Candida albicans ATCC MYA-1003; type: toxicity; settings: red blood cells (erythrocytes), read-out: Selectivity Index
[27] = Selectivity index, ratio of compound concentration showing <20 to <25% hemolysis in mouse RBC to MIC for fluconazole/ITC-resistant Candida albicans ATCC 90819; type: toxicity; settings: red blood cells (erythrocytes), read-out: Selectivity Index
Candida albicans [28] = assay: Antifungal activity against fluconazole/ITC-susceptible Candida albicans ATCC MYA-2876 measured after 48 hrs by CLSI M27-A3 protocol based method; type: functional; settings: ATCC MYA-2876, 48 h
[29] = Selectivity index, ratio of compound concentration showing <20 to <25% hemolysis in mouse RBC to MIC for Candida krusei ATCC 6258; type: toxicity; settings: red blood cells (erythrocytes), read-out: Selectivity Index
Enterococcus = assay: Antibacterial activity against vancomycin-resistant Enterococcus; type: functional, organism-based
[30] = Selectivity index, ratio of compound concentration showing <20 to <25% hemolysis in mouse RBC to MIC for Aspergillus nidulans ATCC 38163; type: toxicity; settings: red blood cells (erythrocytes), read-out: Selectivity Index
[31] = Selectivity index, ratio of compound concentration showing <20 to <25% hemolysis in mouse RBC to MIC for Aspergillus flavus ATCC MYA-3631; type: toxicity; settings: red blood cells (erythrocytes), read-out: Selectivity Index
Candida albicans [32] = assay: Antifungal activity against fluconazole/ITC-resistant Candida albicans ATCC 64124 measured after 48 hrs by CLSI M27-A3 protocol based method; type: functional; settings: ATCC 64124, 48 h
[33] = Selectivity index, ratio of compound concentration showing <20 to <25% hemolysis in mouse RBC to MIC for fluconazole/ITC-resistant Candida albicans ATCC MYA-1237; type: toxicity; settings: red blood cells (erythrocytes), read-out: Selectivity Index
Listeria monocytogenes = assay: Antibacterial activity against Listeria monocytogenes; type: functional, organism-based
[34] = Selectivity index, ratio of CC50 for human A549 cells to MIC for Candida glabrata ATCC 2001; type: toxicity; settings: read-out: Selectivity Index
[35] = Hemolytic activity in mouse RBC at 7.8 ug/ml after 1 hr relative to control; type: ADME, cell-based, Erythrocyte; settings: red blood cells (erythrocytes), read-out: Activity
[36] = Selectivity index, ratio of compound concentration showing <20 to <25% hemolysis in mouse RBC to MIC for fluconazole/ITC-susceptible Candida albicans ATCC MYA-2876; type: toxicity; settings: red blood cells (erythrocytes), read-out: Selectivity Index
[37] = Selectivity index, ratio of compound concentration showing <20 to <25% hemolysis in mouse RBC to MIC for Aspergillus terreus ATCC MYA-3633; type: toxicity; settings: red blood cells (erythrocytes), read-out: Selectivity Index
[38] = Selectivity index, ratio of CC50 for human A549 cells to MIC for Candida parapsilosis ATCC 22019; type: toxicity; settings: read-out: Selectivity Index
[39] = Selectivity index, ratio of CC50 for human A549 cells to MIC for Aspergillus nidulans ATCC 38163; type: toxicity; settings: read-out: Selectivity Index
[40] = Selectivity index, ratio of CC50 for human A549 cells to MIC for fluconazole/ITC-resistant Candida albicans ATCC 64124; type: toxicity; settings: read-out: Selectivity Index

Which results are given for `C(=N\Nc1ccccc1)/c1ccc(-c2ccc(/C=N/Nc3ccccc3)cc2)cc1`?
hemolysis at 1 h, 31.3 ug/ml [1]: 10.8%; Activity (Staphylococcus aureus): inactive; selectivity ratio [2]: 0.6; MIC (Aspergillus terreus): 15.6 µg/mL (≈ 39.9 µM); CC50 (A549): 17.7 µg/mL (≈ 45.3 µM); selectivity ratio [3]: 1 to 32; hemolysis at 1 h, 1.95 ug/ml [4]: 3.7%; hemolysis at 1 h, 3.9 ug/ml [5]: 3.4%; selectivity ratio [6]: 0.6; selectivity ratio [7]: 0.6; selectivity ratio [8]: 1 to 32; selectivity ratio [9]: 0.6; selectivity ratio [10]: 1 to 32; MIC (Aspergillus flavus): 3.9 µg/mL (≈ 9.99 µM); selectivity ratio [11]: 1 to 32; MIC (Candida albicans [12]): > 31.3 µg/mL; selectivity ratio [13]: 1 to 32; hemolysis at 1 h, 62.5 ug/ml [14]: 17.2%; selectivity ratio [15]: 1.1; selectivity ratio [16]: 0.6; MIC (Nakaseomyces glabratus): > 31.3 µg/mL; hemolysis at 1 h, 15.6 ug/ml ([17]; at 15.6 µg/mL): 14.1%; hemolysis at 1 h, 0.975 ug/ml [17]: 0.1%; selectivity ratio [18]: 4.5; MIC (Candida albicans [19]): 7.8 µg/mL (≈ 20 µM); CC50 (BEAS-2B): 11 µg/mL (≈ 28.2 µM); MIC (Candida albicans [20]): > 31.3 µg/mL; MIC (Candida albicans [21]): 31.3 µg/mL (≈ 80.2 µM); MIC (Pichia kudriavzevii): > 31.3 µg/mL; MIC (Candida albicans [22]): > 31.3 µg/mL; selectivity ratio [23]: 0.6; MIC (Aspergillus nidulans): 1.95 µg/mL (≈ 4.99 µM); MIC (Candida parapsilosis): > 31.3 µg/mL; hemolysis at 1 h, […] [24]: 2%; selectivity ratio [25]: 2.3; selectivity ratio [26]: 1 to 32; selectivity ratio [27]: 1 to 32; MIC (Candida albicans [28]): > 31.3 µg/mL; selectivity ratio [29]: 1 to 32; Activity (Enterococcus): inactive; selectivity ratio [30]: 1 to 32; selectivity ratio [31]: 1 to 32; MIC (Candida albicans [32]): > 31.3 µg/mL; selectivity ratio [33]: 1 to 32; Activity (Listeria monocytogenes): inactive; selectivity ratio [34]: 0.6; hemolysis at 1 h, 7.8 ug/ml [35]: 2.9%; selectivity ratio [36]: 1 to 32; selectivity ratio [37]: 1 to 32; selectivity ratio [38]: 0.6; selectivity ratio [39]: 9.1; selectivity ratio [40]: 0.6
